In patent US8247211B2, “Glycopeptide antibiotics” (American Cyanamid Company, priority 2001, dated 2012):
≈ marks a conversion by molar mass, not a printed value. Blank lines part the entries; values can stand above or below the molecule they belong to.

Legend:
Assay in all cases: In vitro antibacterial evaluation: minimum inhibitory concentration (MIC), broth dilution method
Type in all cases: cell-based
[1] = system: Staphylococcus sp.; details: broth dilution, 18 hours at 35° C.
Method: (§1) The minimum inhibitory concentration (MIC), the lowest concentration of the antibiotic which inhibits growth of the test organism, is determined by the broth dilution method using Muller-Hinton II […] (Baltimore Biological Laboratories) following the recommendations of the National Committee for Clinical Laboratory Standards [Methods for dilution antimicrobial susceptibility tests for bacteria that grow aerobically, approved standard M7-A2, National Committee for Clinical Laboratory Standards, Villanova, Pa].
(§2) An inoculum level of 5×10^5 CFU/mL, and a range of antibiotic concentrations (64-0.06 μg/mL) is used. […] The test organisms include a spectrum of Gram-positive bacteria comprised of Staphylococcus sp., Streptococcus sp. and Enterococcus sp. These organisms include recent clinical isolates that are resistant to methicillin, penicillin and/or vancomycin.

[2] = system: Escherichia coli; details: for MIC Escherichia coli (GC 4559): strain GC 4559; for MIC Escherichi coli (GC 4560): strain GC 4560
Method: as §1, §2

[3] = system: Streptococcus sp.; details: for MIC Streptococcus pyogenes (GC 4563): strain GC 4563; for MIC Streptococcus agalactiae (GC 4564): strain GC 4564
Method: as §1, §2

[4] = system: Enterococcus sp.; details: for MIC Enterococcus faecalis (ATCC 29212): strain ATCC 29212; for MIC Enterococcus faecalis (GC 2242): strain GC 2242; for MIC Enterococcus faecium (GC 2243): strain GC 2243; for MIC Enterococcus faecalis (GC 2691): strain GC 2691; for MIC Enterococcus faecalis (GC 3059): strain GC 3059; for MIC Enterococcus faecalis (GC 4552): strain GC 4552; for MIC Enterococcus faecalis (GC 4553): strain GC 4553; for MIC Enterococcus faecalis (GC 4554): strain GC 4554; for MIC Enterococcus faecium (GC 4556): strain GC 4556; for MIC Enterococcus faecium (GC 4557): strain GC 4557; for MIC Enterococcus avium (GC 4558): strain GC 4558; for MIC Enterococcus faecalis (GC 6189): strain GC 6189
Method: as §1, §2

MIC Coagulase Negative Staphylococcus (GC 4547) ([1]; 5×10^5 CFU/mL): 1 to 2 µg/mL | MIC Coagulase Negative Staphylococcus (GC 4548) ([1]; 5×10^5 CFU/mL): <0.5 to 1 µg/mL | MIC Coagulase Negative Staphylococcus (GC 4549) ([1]; 5×10^5 CFU/mL): <0.5 to 1 µg/mL | MIC Coagulase Negative Staphylococcus (GC 4551) ([1]; 5×10^5 CFU/mL): 1 µg/mL (≈ 0.695 µM) | MIC Coagulase Negative Staphylococcus (GC 6257) ([1]; 5×10^5 CFU/mL): 2 µg/mL (≈ 1.39 µM) | MIC Coagulase Negative Staphylococcus (ID-3941) ([1]; 5×10^5 CFU/mL): 1 µg/mL (≈ 0.695 µM) | MIC Staphylococcus aureus (GC 3051) ([1]; 5×10^5 CFU/mL): 0.5 µg/mL (≈ 0.347 µM) | MIC Staphylococcus aureus (GC 3053) ([1]; 5×10^5 CFU/mL): 0.5 µg/mL (≈ 0.347 µM) | MIC Staphylococcus aureus (GC 4542) ([1]; 5×10^5 CFU/mL): 0.5 to 1 µg/mL | MIC Staphylococcus aureus (GC 4544) ([1]; 5×10^5 CFU/mL): 0.5 to 1 µg/mL | MIC Staphylococcus aureus (GC 4545) ([1]; 5×10^5 CFU/mL): 0.5 to 1 µg/mL | MIC Staphylococcus aureus-SMITH (GC 4543) ([1]; 5×10^5 CFU/mL): 0.5 to 1 µg/mL | MIC Staphylococcus aureus (GC 3051) ([1]; strain GC 3051): 0.5 µg/mL (≈ 0.347 µM) | MIC Staphylococcus aureus (GC 3053) ([1]; strain GC 3053): 0.5 µg/mL (≈ 0.347 µM) | MIC Staphylococcus aureus (GC 4542) ([1]; strain GC 4542): 0.5 to 1 µg/mL | MIC Staphylococcus aureus-SMITH (GC 4543) ([1]; strain GC 4543): 0.5 to 1 µg/mL | MIC Staphylococcus aureus (GC 4544) ([1]; strain GC 4544): 0.5 to 1 µg/mL | MIC Staphylococcus aureus (GC 4545) ([1]; strain GC 4545): 0.5 to 1 µg/mL | MIC Coagulase Negative Staphylococcus (GC 4547) ([1]; strain GC 4547): 1 to 2 µg/mL | MIC Coagulase Negative Staphylococcus (GC 4548) ([1]; strain GC 4548): <0.5 to 1 µg/mL | MIC Coagulase Negative Staphylococcus (GC 4549) ([1]; strain GC 4549): <0.5 to 1 µg/mL | MIC Coagulase Negative Staphylococcus (GC 4551) ([1]; strain GC 4551): 1 µg/mL (≈ 0.695 µM) | MIC Coagulase Negative Staphylococcus (GC 6257) ([1]; strain GC 6257): 2 µg/mL (≈ 1.39 µM) | MIC Coagulase Negative Staphylococcus (ID-3941) ([1]; strain ID-3941): 1 µg/mL (≈ 0.695 µM) | MIC Escherichia coli (GC 4559) [2]: 64 µg/mL (≈ 44.5 µM) | MIC Escherichi coli (GC 4560) [2]: 0.5 to 2 µg/mL | MIC Streptococcus pyogenes (GC 4563) [3]: >0.12 µg/mL | MIC Streptococcus agalactiae (GC 4564) [3]: <0.12 µg/mL | MIC Streptococcus pyogenes (ID-3187) ([3]; strain ID-3187): <0.5 µg/mL | MIC Enterococcus faecalis (ATCC 29212) [4]: 0.5 to 2 µg/mL | MIC Enterococcus faecalis (GC 2242) [4]: 0.5 to 1 µg/mL | MIC Enterococcus faecium (GC 2243) [4]: 1 to 2 µg/mL | MIC Enterococcus faecalis (GC 2691) [4]: 0.5 µg/mL (≈ 0.347 µM) | MIC Enterococcus faecalis (GC 3059) [4]: 0.5 µg/mL (≈ 0.347 µM) | MIC Enterococcus faecalis (GC 4552) [4]: 0.5 to 1 µg/mL | MIC Enterococcus faecalis (GC 4553) [4]: 0.5 to 1 µg/mL | MIC Enterococcus faecalis (GC 4554) [4]: 0.5 to 1 µg/mL | MIC Enterococcus faecium (GC 4556) [4]: 2 µg/mL (≈ 1.39 µM) | MIC Enterococcus faecium (GC 4557) [4]: 1 to 2 µg/mL | MIC Enterococcus avium (GC 4558) [4]: 0.5 to 2 µg/mL | MIC Enterococcus faecalis (GC 6189) [4]: 0.5 µg/mL (≈ 0.347 µM)
SMILES: CC(c1ccccc1)C1NC(=O)CNC(=O)C(CO)NC(=O)C(C(O)C2CNC(=N)N2C2OC(CO)C(O)C(O)C2O)NC(=O)C(C(O)C2CNC(=N)N2)NC(=O)C(Cc2ccc(OC3OC(CO)C(OC4OC5COC(c6ccc(C(C)(C)C)cc6)OC5C(O)C4O)C(O)C3O)cc2)NC1=O (stereo not drawn) [Example 147, Cyclo[glycyl-β-methylphenylalanyl-O-[4-O-[4,6-O-(4-tert-butylbenzylidene)hexonyranosyl]-hexopyranosyl]tyrosyl-3-(2-iminoimidazolidin-4-yl)seryl-3-(3-hexopyranosyl-2-iminoimidazolidin-4-yl)serylseryl]]
MIC Staphylococcus haemolyticus (GC 4546) ([1]; 5×10^5 CFU/mL): 1 to 2 µg/mL | MIC Staphylococcus haemolyticus (GC 4546) ([1]; strain GC 4546): 1 to 2 µg/mL

MIC Coagulase Negative Staphylococcus (GC 4547) ([1]; 5×10^5 CFU/mL): 1 µg/mL (≈ 0.694 µM) | MIC Coagulase Negative Staphylococcus (GC 4548) ([1]; 5×10^5 CFU/mL): 1 µg/mL (≈ 0.694 µM) | MIC Coagulase Negative Staphylococcus (GC 4549) ([1]; 5×10^5 CFU/mL): 1 µg/mL (≈ 0.694 µM) | MIC Coagulase Negative Staphylococcus (GC 4551) ([1]; 5×10^5 CFU/mL): 1 µg/mL (≈ 0.694 µM) | MIC Coagulase Negative Staphylococcus (GC 6257) ([1]; 5×10^5 CFU/mL): 1 µg/mL (≈ 0.694 µM) | MIC Staphylococcus aureus (ATCC 29213) ([1]; 5×10^5 CFU/mL): 2 µg/mL (≈ 1.39 µM) | MIC Staphylococcus aureus (GC 1131) ([1]; 5×10^5 CFU/mL): 2 µg/mL (≈ 1.39 µM) | MIC Staphylococcus aureus (GC 3051) ([1]; 5×10^5 CFU/mL): 2 µg/mL (≈ 1.39 µM) | MIC Staphylococcus aureus (GC 3053) ([1]; 5×10^5 CFU/mL): 4 µg/mL (≈ 2.78 µM) | MIC Staphylococcus aureus (GC 4541) ([1]; 5×10^5 CFU/mL): 2 µg/mL (≈ 1.39 µM) | MIC Staphylococcus aureus (GC 4542) ([1]; 5×10^5 CFU/mL): 2 µg/mL (≈ 1.39 µM) | MIC Staphylococcus aureus (GC 4544) ([1]; 5×10^5 CFU/mL): 2 µg/mL (≈ 1.39 µM) | MIC Staphylococcus aureus (GC 4545) ([1]; 5×10^5 CFU/mL): 2 µg/mL (≈ 1.39 µM) | MIC Staphylococcus aureus-SMITH (GC 4543) ([1]; 5×10^5 CFU/mL): 2 µg/mL (≈ 1.39 µM) | MIC Staphylococcus aureus (ATCC 29213) ([1]; strain ATCC 29213): 2 µg/mL (≈ 1.39 µM) | MIC Staphylococcus aureus (GC 1131) ([1]; strain GC 1131): 2 µg/mL (≈ 1.39 µM) | MIC Staphylococcus aureus (GC 3051) ([1]; strain GC 3051): 2 µg/mL (≈ 1.39 µM) | MIC Staphylococcus aureus (GC 3053) ([1]; strain GC 3053): 4 µg/mL (≈ 2.78 µM) | MIC Staphylococcus aureus (GC 4541) ([1]; strain GC 4541): 2 µg/mL (≈ 1.39 µM) | MIC Staphylococcus aureus (GC 4542) ([1]; strain GC 4542): 2 µg/mL (≈ 1.39 µM) | MIC Staphylococcus aureus-SMITH (GC 4543) ([1]; strain GC 4543): 2 µg/mL (≈ 1.39 µM) | MIC Staphylococcus aureus (GC 4544) ([1]; strain GC 4544): 2 µg/mL (≈ 1.39 µM) | MIC Staphylococcus aureus (GC 4545) ([1]; strain GC 4545): 2 µg/mL (≈ 1.39 µM) | MIC Coagulase Negative Staphylococcus (GC 4547) ([1]; strain GC 4547): 1 µg/mL (≈ 0.694 µM) | MIC Coagulase Negative Staphylococcus (GC 4548) ([1]; strain GC 4548): 1 µg/mL (≈ 0.694 µM) | MIC Coagulase Negative Staphylococcus (GC 4549) ([1]; strain GC 4549): 1 µg/mL (≈ 0.694 µM) | MIC Coagulase Negative Staphylococcus (GC 4551) ([1]; strain GC 4551): 1 µg/mL (≈ 0.694 µM) | MIC Coagulase Negative Staphylococcus (GC 6257) ([1]; strain GC 6257): 1 µg/mL (≈ 0.694 µM) | MIC Escherichia coli (ATCC 25922) ([2]; strain ATCC 25922): >64 µg/mL | MIC Escherichia coli (GC 4559) [2]: 64 µg/mL (≈ 44.4 µM) | MIC Escherichi coli (GC 4560) [2]: <0.5 µg/mL | MIC Streptococcus pneumoniae (ATCC 6301) ([3]; strain ATCC 6301): <0.5 µg/mL | MIC Streptococcus pneumoniae (GC 1894) ([3]; strain GC 1894): <0.5 µg/mL | MIC Streptococcus pyogenes (GC 4563) [3]: <0.5 µg/mL | MIC Streptococcus agalactiae (GC 4564) [3]: 1 µg/mL (≈ 0.694 µM) | MIC Streptococcus pneumoniae (GC 4565) ([3]; strain GC 4565): 2 µg/mL (≈ 1.39 µM) | MIC Enterococcus faecalis (ATCC 29212) [4]: 8 µg/mL (≈ 5.55 µM) | MIC Enterococcus faecalis (GC 2242) [4]: 8 µg/mL (≈ 5.55 µM) | MIC Enterococcus faecium (GC 2243) [4]: 8 µg/mL (≈ 5.55 µM) | MIC Enterococcus faecalis (GC 2691) [4]: 8 µg/mL (≈ 5.55 µM) | MIC Enterococcus faecalis (GC 3059) [4]: 8 µg/mL (≈ 5.55 µM) | MIC Enterococcus faecalis (GC 4552) [4]: 8 µg/mL (≈ 5.55 µM) | MIC Enterococcus faecalis (GC 4553) [4]: 8 µg/mL (≈ 5.55 µM) | MIC Enterococcus faecalis (GC 4554) [4]: 8 µg/mL (≈ 5.55 µM) | MIC Enterococcus faecium (GC 4556) [4]: 8 µg/mL (≈ 5.55 µM) | MIC Enterococcus faecium (GC 4557) [4]: 2 µg/mL (≈ 1.39 µM) | MIC Enterococcus avium (GC 4558) [4]: 8 µg/mL (≈ 5.55 µM) | MIC Enterococcus faecalis (GC 6189) [4]: 8 µg/mL (≈ 5.55 µM)
SMILES: CC(c1ccccc1)C1NC(=O)CNC(=O)C(CO)NC(=O)C(C(O)C2CNC(=N)N2C2OC(CO)C(O)C(O)C2O)NC(=O)C(C(O)C2CNC(=N)N2)NC(=O)C(Cc2ccc(OC3OC(CO)C(OC4OC5COC(c6ccc7c(c6)OCCO7)OC5C(O)C4O)C(O)C3O)cc2)NC1=O (stereo not drawn) [Example 149]
MIC Staphylococcus haemolyticus (GC 4546) ([1]; 5×10^5 CFU/mL): 1 µg/mL (≈ 0.694 µM) | MIC Staphylococcus haemolyticus (GC 4546) ([1]; strain GC 4546): 1 µg/mL (≈ 0.694 µM)
